Measurements as given in patent US8815940B2, “Coumarin-chalcones as anticancer agents” (Council of Scientific & Industrial Research, priority 2010, dated 2014).
Read-outs that look alike come from different tables or passages of the source.

How the values were obtained:
[1] = tested on: C33A (cervical carcinoma); assay: sulforhodamine B cell cytotoxicity assay, C33A; type: cell-based, human; conditions: Homo sapiens, C-33-A, SRB assay, 48 h of exposure
Description: (§1) The human cancer cell lines—KB (oral squamous cell carcinoma). C33A (cervical carcinoma), MCF-7 (breast adenocarcinoma), A549 (lung carcinoma) and mouse embryo fibroblast (NIH3T3) were obtained from American Type Culture Collection (ATCC), USA. These cells were grown in recommended media supplemented with 10% FBS, 50 μg/mL gentamycin and 2.5 μg/mL amphotericin B in a 5% CO2 humidified atmosphere at 37° C. Cells below 15 passage level were used for this study. A colorimetric sulforhodamine B assay was used for the measurement of cell cytotoxicity. 1×10^4 cells (in 180 μL) were added to each well of 96-well plate and incubated overnight to allow for cell attachment. Cells were then treated with serial two-fold dilutions of test compounds (100 to 1.6 μM) and untreated cells receiving the same volume of medium served as control. After 48 h of exposure, cells were fixed with ice-cold 50% TCA, stained with 0.4% (w/v) SRB in 1% acetic acid, washed and air dried. Bound dye was dissolved in 150 μL of 10 mM tris base. The plates were read at 540 nm absorbance on plate reader (Polarstar Galaxy, BMG, Germany). The cytotoxic effects of compounds were calculated as % inhibition in cell growth as per the formula […].

[2] = tested on: HeLa Human cervical cancer cells; assay: human tumor xenograft in SCID mice, tumor growth; type: in vivo; conditions: ADR 2 mg/kg I.V. Q7dx3
Description: (§2) The in vivo efficacy studies were performed using human tumor xenografts in SCID mice. Human cervical cancer cells (HeLa) were injected subcutaneously (1×10^7 cells in 100 μl HBSS medium) on the right flank of each mouse. Tumor bearing mice were divided randomly into treatment groups and the treatment schedules began on day 7 of the xenograft. The test compound (S009-0131) was administered orally to each mouse at a daily dose of 100 mg/kg body weight, for 15 days. The standard anti-cancer drug Adriamycin (ADR) was used as ‘positive’ control and given to each mouse as an i.v. dose of 2 mg/kg body weight, Q7d×3 ([…]). The group of vehicle treated animals served as ‘negative’ control.
(§3) The tumor volume, body weight and signs of overt toxicity were monitored and recorded for the entire duration of the experiment (60 days). Tumor volumes were calculated using the formula (a×b2)/2, where a, b are two longest perpendicular diameters. Tumor growth was expressed in terms of relative tumor volume (RTV) which is the ratio of tumor volume on a particular day to the tumor volume on day 1 of the study. Tumor growth inhibition index (T/C) was calculated as follows: T/C=Average RTV of test group mice/Average RTV of control group mice.

[3] = tested on: MCF-7 (breast adenocarcinoma); assay: sulforhodamine B cell cytotoxicity assay, MCF-7; type: cell-based; conditions: Homo sapiens, MCF7; Table 2; SRB assay, 48 h of exposure
Description: as §1

[4] = tested on: KB (oral squamous cell carcinoma); assay: sulforhodamine B cell cytotoxicity assay, KB; type: cell-based; conditions: Homo sapiens; Table 2; SRB assay, 48 h of exposure
Description: as §1

A549 (lung carcinoma) = assay: sulforhodamine B cell cytotoxicity assay, A549; type: cell-based; conditions: Homo sapiens, Table 2, SRB assay, 48 h of exposure
Description: as §1

[5] = animal weight and overt toxicity in the xenograft study; type: in vivo, SCID mice; conditions: ADR 2 mg/kg I.V. Q7dx3
Description: as §2, §3

[6] = tested on: mouse embryo fibroblast (NIH3T3); assay: sulforhodamine B cell cytotoxicity assay, NIH3T3 non-cancer cells; type: cell-based; conditions: 48 h of exposure
Description: as §1

[7] = Table 2, read-out: IC50 C33A (Cervical)
[8] = Table 1, read-out: IC50 C33A (cervical cancer)
[9] = Table 1, SRB assay, read-out: IC50 NIH3T3 (mouse fibroblast)
[10] = Table 2, SRB assay, read-out: IC50 NIH3T3 (Non-cancer, fibroblast)

In the case of `COc1cccc2c1C(=O)c1c(O)c3c(c(O)c1C2=O)C[C@@](O)(C(=O)CO)C[C@@H]3O[C@H]1C[C@H](N)[C@H](O)[C@H](C)O1` [Doxorubicin, reference compound], the IC50 [1, 7] is reported as 0.82 µM, the “RTV (relative tumor volume)” value ([2]; day 1) is reported as 1 and the “T/C (tumor growth inhibition index)” value ([2]; day 1) is reported as 1. For the same compound, the “RTV (relative tumor volume)” value ([2]; day 5) was 0.69, the “T/C (tumor growth inhibition index)” value ([2]; day 5) was 0.53 and the “RTV (relative tumor volume)” value ([2]; day 9) was 0.72. For the same compound, the “T/C (tumor growth inhibition index)” value ([2]; day 9) was 0.44, the “RTV (relative tumor volume)” value ([2]; day 12) was 0.92 and the “T/C (tumor growth inhibition index)” value ([2]; day 12) was 0.47. For the same compound, the “RTV (relative tumor volume)” value ([2]; day 15) was 1.39, the “T/C (tumor growth inhibition index)” value ([2]; day 15) was 0.43 and the “RTV (relative tumor volume)” value ([2]; day 19) was 1.65. The “T/C (tumor growth inhibition index)” value ([2]; day 19) was 0.45, the “RTV (relative tumor volume)” value ([2]; day 22) was 3.52 and the “T/C (tumor growth inhibition index)” value ([2]; day 22) was 0.68. The “RTV (relative tumor volume)” value ([2]; day 25) was 3.84, the “T/C (tumor growth inhibition index)” value ([2]; day 25) was 0.62 and the “RTV (relative tumor volume)” value ([2]; day 29) was 4.60. For the same compound, the “T/C (tumor growth inhibition index)” value ([2]; day 29) was 0.63, the “RTV (relative tumor volume)” value ([2]; day 33) was 4.69 and the “T/C (tumor growth inhibition index)” value ([2]; day 33) was 0.47. The “T/C (tumor growth inhibition index)” value ([2]; day 37) was 0.58, the “T/C (tumor growth inhibition index)” value ([2]; day 41) was 0.49 and the “T/C (tumor growth inhibition index)” value ([2]; day 44) was 0.43. For the same compound, the “T/C (tumor growth inhibition index)” value ([2]; day 51) was 0.43, the IC50 [3] was 0.61 µM and the IC50 [4] was 0.22 µM. For the same compound, the IC50 (A549 (lung carcinoma)) was 0.52 µM, the “Average Animal weight” value ([5]; day 1) was 20.7 grams and the “Average Animal weight” value ([5]; day 5) was 20.9 grams. The “Average Animal weight” value ([5]; day 9) was 20.6 grams, the “Average Animal weight” value ([5]; day 12) was 20.3 grams and the “Average Animal weight” value ([5]; day 15) was 19.6 grams. For the same compound, the “Average Animal weight” value ([5]; day 19) was 18.3 grams, the “Average Animal weight” value ([5]; day 22) was 19.7 grams and the “Average Animal weight” value ([5]; day 25) was 19.9 grams. The “Average Animal weight” value ([5]; day 29) was 20.4 grams, the “Average Animal weight” value ([5]; day 33) was 20.6 grams and the “Average Animal weight” value ([5]; day 37) was 24.8 grams. The “Average Animal weight” value ([5]; day 41) was 21.8 grams, the “Average Animal weight” value ([5]; day 44) was 22.1 grams and the “Average Animal weight” value ([5]; day 51) was 21.2 grams.
Compound `CCC(C)c1cc(/C=C/C(=O)c2ccc(C)cc2)cc(C=O)c1O` (centres unmarked) [Example S008-0392, (E)-3-sec-butyl-2-hydroxy-5-(3-oxo-3-p-tolylprop-1-enyl)benzaldehyde] has an IC50 [1, 8] of 10.2 µM and an IC50 [6, 9] of 129 µM.
For `CCOC(=O)c1cc2cc(C=CC(=O)c3ccccc3)cc(C(C)CC)c2oc1=O` (centres unmarked) [Example S009-0132, Ethyl 8-sec-butyl-2-oxo-6-(3-oxo-3-phenylprop-1-enyl)-2H-chromene-3-carboxylate], the IC50 [1, 7] was 8.12 µM, the IC50 [3] was 88.1 µM and the IC50 [6, 10] was greater than 150 µM. For the same compound, the IC50 [4] was 10.5 µM, the melting point was 155 to 156 °C and the IC50 (A549 (lung carcinoma)) was 12.9 µM.
In the case of `CCC(C)c1cc(C=CC(=O)c2ccccc2)cc2cc(C(=O)OC)c(=O)oc12` (centres unmarked) [Example S009-0133, Methyl 8-sec-butyl-2-oxo-6-(3-oxo-3-phenylprop-1-enyl)-2H-chromene-3-carboxylate], the IC50 [1, 7] is reported as 6.28 µM, the IC50 [3] is reported as 11.4 µM and the IC50 [6, 10] is reported as greater than 150 µM. For the same compound, the IC50 [4] was 13.4 µM, the melting point was 139 to 140 °C and the IC50 (A549 (lung carcinoma)) was 10.7 µM.
For `CCOC(=O)c1cc2cc(C=CC(=O)c3ccc(Cl)cc3)cc(C(C)CC)c2oc1=O` (centres unmarked) [Example S009-0135, Ethyl 8-sec-butyl-6-(3-(4-chlorophenyl)-3-oxoprop-1-enyl)-2-oxo-2H-chromene-3-carboxylate], the IC50 [1, 7] was 4.54 µM, the IC50 [3] was 11.1 µM and the IC50 [6, 10] was 38.4 µM. It also gave an IC50 [4] of 14.3 µM and an IC50 (A549 (lung carcinoma)) of 12.8 µM.
Compound `CCC(C)c1cc(C=CC(=O)c2ccc(Cl)cc2)cc2cc(C(=O)OC)c(=O)oc12` (centres unmarked) [Example S009-0136, Methyl 8-sec-butyl-6-(3-(4-chlorophenyl)-3-oxoprop-1-enyl)-2-oxo-2H-chromene-3-carboxylate] has an IC50 [1, 7] of 5.9 µM, an IC50 [3] of 10.8 µM and an IC50 [6, 10] of 42.4 µM. For the same compound, the IC50 [4] was 28.2 µM, the melting point was 145 to 146 °C and the IC50 (A549 (lung carcinoma)) was 16.7 µM.
For `CCOC(=O)c1cc2cc(C=O)cc(C(C)CC)c2oc1=O` (centres unmarked) [Example S009-0139, Ethyl 8-sec-butyl-6-formyl-2-oxo-2H-chromene-3-carboxylate], the IC50 [1, 8] was 64.3 µM, the IC50 [1, 7] was 64.3 µM and the IC50 [3] was 113 µM. It also gave an IC50 [6, 9] greater than 150 µM, an IC50 [6, 10] greater than 150 µM and an IC50 [4] of 132 µM. The melting point was 89 to 90 °C and the IC50 (A549 (lung carcinoma)) was 147 µM.
`CCN(CC)C(=O)c1cc2cc(/C=C/C(=O)c3ccc(C)cc3)cc(C(C)(C)C)c2oc1=O` [Example S010-1992, (E)-8-tert-butyl-N,N-diethyl-2-oxo-6-(3-oxo-3-p-tolylprop-1-enyl)-2H-chromene-3-carboxamide] gave an IC50 [1, 7] of 1.53 µM, an IC50 [3] of less than 7.01 µM and an IC50 [6, 10] greater than 150 µM. The IC50 [4] was 2.02 µM, the melting point was 170 to 171 °C and the IC50 (A549 (lung carcinoma)) was 1.5 µM.
`CCC(C)c1cc(/C=C/C(=O)c2ccc(C)cc2)cc2cc(C(=O)NC)c(=O)oc12` (centres unmarked) [Example S010-1994, (E)-8-sec-butyl-N-methyl-2-oxo-6-(3-oxo-3-p-tolylprop-1-enyl)-2H-chromene-3-carboxamide] showed a melting point of 215 to 216 °C.
For `CCNC(=O)c1cc2cc(/C=C/C(=O)c3ccc(C)cc3)cc(C(C)CC)c2oc1=O` (centres unmarked) [Example S010-1995, (E)-8-sec-butyl-N-ethyl-2-oxo-6-(3-oxo-3-p-tolylprop-1-enyl)-2H-chromene-3-carboxamide], the IC50 [1, 7] was 5.56 µM, the IC50 [3] was 22.2 µM and the IC50 [6, 10] was greater than 150 µM. It also gave an IC50 [4] of 10.7 µM, a melting point of 162 to 163 °C and an IC50 (A549 (lung carcinoma)) greater than 150 µM.
For `CCC(C)c1cc(/C=C/C(=O)c2ccc(C)cc2)cc2cc(C(=O)N(CC)CC)c(=O)oc12` (centres unmarked) [Example S010-1996, (E)-8-sec-butyl-N,N-diethyl-2-oxo-6-(3-oxo-3-p-tolylprop-1-enyl)-2H-chromene-3-carboxamide], the IC50 [1, 7] was 3.12 µM, the IC50 [3] was less than 7.01 µM and the IC50 [6, 10] was greater than 150 µM. It also gave an IC50 [4] of 3.55 µM, a melting point of 146 to 147 °C and an IC50 (A549 (lung carcinoma)) of 3.77 µM.
Work on `CCOC(=O)c1cc2cc(/C=C/C(=O)c3cc(OC)c(OC)c(OC)c3)cc(C(C)CC)c2oc1=O` (centres unmarked) [Example S010-2000, (E)-ethyl 8-sec-butyl-2-oxo-6-(3-oxo-3-(3,4,5-trimethoxyphenyl)prop-1-enyl)-2H-chromene-3-carboxylate] yielded an IC50 [1, 7] of 5.72 µM, an IC50 [3] of 11.5 µM and an IC50 [6, 10] greater than 150 µM. The IC50 [4] was 9.36 µM, the melting point was 128 to 129 °C and the IC50 (A549 (lung carcinoma)) was 11.6 µM.
Work on `CCC(C)c1cc(/C=C/C(=O)c2cc(OC)c(OC)c(OC)c2)cc2cc(C(=O)OC)c(=O)oc12` (centres unmarked) [Example S010-2001, (E)-methyl 8-sec-butyl-2-oxo-6-(3-oxo-3-(3,4,5-trimethoxyphenyl)prop-1-enyl)-2H-chromene-3-carboxylate] yielded an IC50 [1, 7] of 2.56 µM, an IC50 [3] of 10.2 µM and an IC50 [6, 10] greater than 150 µM. It also gave an IC50 [4] of 3.1 µM, a melting point of 138 to 139 °C and an IC50 (A549 (lung carcinoma)) of 3.68 µM.
In the case of `COC(=O)c1cc2cc(/C=C/C(=O)c3cc(OC)c(OC)c(OC)c3)cc(C(C)(C)C)c2oc1=O` [Example S010-2003, (E)-methyl 8-tert-butyl-2-oxo-6-(3-oxo-3-(3,4,5-trimethoxyphenyl)prop-1-enyl)-2H-chromene-3-carboxylate], the IC50 [1, 7] is reported as 4.99 µM, the IC50 [3] is reported as 13.3 µM and the IC50 [6, 10] is reported as greater than 150 µM. It also gave an IC50 [4] of 8.3 µM, a melting point of 145 to 146 °C and an IC50 (A549 (lung carcinoma)) of 11.1 µM.
With `Cc1ccc(C(=O)/C=C/c2cc(C(C)(C)C)c3oc(=O)c(C(=O)O)cc3c2)cc1` [Example-9, (E)-8-tert-butyl-2-oxo-6-(3-oxo-3-p-tolylprop-1-enyl)-2H-chromene-3-carboxylic Acid] the melting point was 185 to 186 °C.
